For data set [1], the target named is T1, hERG potassium channel (Homo sapiens, UniProt Q12809). Nature of the data set: in vitro. The conditions noted are these: % inhibition.
The target in data set [2] is T1, hERG potassium channel. In words: biochemical. The conditions noted are these: hERG / IC50 (nM).
Data set [3] has as its target T1, hERG potassium channel. In words: biochemical. The conditions noted are these: hERG / Ki (nM).

T1 sequence (Q12809 whole entry): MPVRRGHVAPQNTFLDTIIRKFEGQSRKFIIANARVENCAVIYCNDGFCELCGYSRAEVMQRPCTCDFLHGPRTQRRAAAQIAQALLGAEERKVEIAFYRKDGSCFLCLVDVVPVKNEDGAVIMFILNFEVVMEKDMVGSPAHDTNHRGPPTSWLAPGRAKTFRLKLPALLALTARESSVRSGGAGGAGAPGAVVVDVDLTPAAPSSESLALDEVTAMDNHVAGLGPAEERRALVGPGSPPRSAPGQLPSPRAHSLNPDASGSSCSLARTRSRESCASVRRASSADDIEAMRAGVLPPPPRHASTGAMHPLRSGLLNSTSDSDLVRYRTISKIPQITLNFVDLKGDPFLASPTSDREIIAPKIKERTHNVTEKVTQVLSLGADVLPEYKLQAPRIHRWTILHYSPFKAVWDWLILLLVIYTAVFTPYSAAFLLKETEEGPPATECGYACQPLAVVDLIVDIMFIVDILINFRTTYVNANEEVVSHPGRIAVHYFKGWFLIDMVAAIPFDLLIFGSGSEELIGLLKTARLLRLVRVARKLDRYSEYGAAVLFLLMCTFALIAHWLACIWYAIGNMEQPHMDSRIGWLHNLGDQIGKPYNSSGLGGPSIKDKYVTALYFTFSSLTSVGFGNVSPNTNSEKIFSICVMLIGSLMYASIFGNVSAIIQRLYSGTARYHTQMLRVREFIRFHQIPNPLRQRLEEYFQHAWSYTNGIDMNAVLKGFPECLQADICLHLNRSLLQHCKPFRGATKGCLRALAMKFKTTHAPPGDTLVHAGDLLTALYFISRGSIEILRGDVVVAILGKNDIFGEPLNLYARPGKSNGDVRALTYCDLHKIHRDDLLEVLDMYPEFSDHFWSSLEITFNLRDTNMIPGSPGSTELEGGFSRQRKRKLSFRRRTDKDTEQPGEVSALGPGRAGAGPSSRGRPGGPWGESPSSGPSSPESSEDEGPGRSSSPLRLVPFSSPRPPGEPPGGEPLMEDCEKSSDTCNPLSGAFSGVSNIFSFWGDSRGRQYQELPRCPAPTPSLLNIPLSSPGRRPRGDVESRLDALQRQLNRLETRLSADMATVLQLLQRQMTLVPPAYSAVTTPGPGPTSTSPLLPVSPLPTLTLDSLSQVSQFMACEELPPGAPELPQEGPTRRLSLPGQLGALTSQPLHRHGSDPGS

Take `CN(C)CCCn1nc(-c2cccc(Cl)c2)c2ccccc2c1=O` [GMD_9433]: the inhibition at 10 µM on hERG potassium channel [1] was found to be 92.5%. Moreover, the IC50 at hERG potassium channel [2] (Synthesis=NBI) amounted to 721 nM. On hERG potassium channel [3] (Synthesis=NBI), this compound came in with a Ki of 510 nM.
In the same order, the values of `CN(C)CCCn1nc(-c2cccnc2)c2ccccc2c1=O` [GMD_11677] are 31.1%, 11100 nM and 7870 nM.
`CN(C)CCCn1nc(-c2cccs2)c2ccccc2c1=O` [GMD_12264] registered a concentration for half-maximal inhibition (IC50) against hERG potassium channel [2] (Synthesis=NBI) of 1890 nM. The Ki on hERG potassium channel [3] (Synthesis=NBI) worked out at 1340 nM.
Turning to `CN(C)CCCn1nc(-c2ccc(Cl)cc2)c2ccccc2c1=O` [GMD_12503], the inhibition at 10 µM against hERG potassium channel [1] turned out to be 72.4%. In addition, the IC50 on hERG potassium channel [2] (Synthesis=NBI) came out at 1220 nM. In addition, the affinity on hERG potassium channel [3] (Synthesis=NBI) corresponds to a Ki of 866 nM.
In the same order, the values of `CN(C)CCn1nc(-c2ccccc2Cl)c2ccccc2c1=O` [GMD_12767] are 84.2%, 1590 nM and 1120 nM.
The like results for `CN(C)CCCn1nc(-c2ccccn2)c2ccccc2c1=O` [GMD_13497] were, in that order, 33.6%, 6070 nM and 4300 nM.
On to `CN(C)CCn1nc(-c2cccc(Cl)c2)c2ccccc2c1=O` [GMD_13630], for which the inhibition at 10 µM against hERG potassium channel [1] was 79.1%. The same compound gave an IC50 against hERG potassium channel [2] (Synthesis=NBI) of 2420 nM. In addition, the Ki at hERG potassium channel [3] (Synthesis=NBI) was found to be 1710 nM.
In the same order, the values of `CN(C)CCCn1nc(-c2ccccc2)c2ccccc2c1=O` [GMD_14496] are 54.2%, 3580 nM and 2530 nM.
In the same order, the values of `CN(C)CCN(C)c1nc2ccccc2n1Cc1ccccc1F` [GMD_15306] are 40.7%, 3040 nM and 2150 nM.
In turn, `CN(C)CCCn1nc(-c2cncc(Cl)c2)c2ccccc2c1=O` [GMD_27933] registered an inhibition at 10 µM at hERG potassium channel [1] of 80.4%. Further, half-maximal inhibition against hERG potassium channel [2] (Synthesis=NBI) (IC50) was put at 968 nM. The same compound returned a Ki at hERG potassium channel [3] (Synthesis=NBI) of 684 nM.
The like results for `CN(C)CCn1nc(-c2ccc(Cl)cc2)c2ccccc2c1=O` [NBI1099469] were, in that order, 71.7%, 1740 nM and 1230 nM.
`CSc1ncccc1-c1nn(CCCN(C)C)c(=O)c2ccccc12` [NBI1100649] returned an inhibition at 10 µM against hERG potassium channel [1] of 28.2%. The compound further came in with an IC50 on hERG potassium channel [2] (Synthesis=NBI) of 8700 nM. At hERG potassium channel [3] (Synthesis=NBI), the Ki came to 6150 nM.
For the compound `CN(C)CCCN(Cc1ccc(Cl)c(Cl)c1)c1ncnc2ccn(C)c12` [m_27____7425384____18313558], testing at 10 µM against hERG potassium channel [1] gave an inhibition of 75.9%. The half-inhibitory concentration (IC50) at hERG potassium channel [2] (Synthesis=Enamine) is 854 nM. At hERG potassium channel [3] (Synthesis=Enamine), the affinity, expressed as Ki, was 604 nM.
Compound `CN(C)CCCN(CCCN(C)C)c1ccc2c(Br)ccc(Cl)c2n1` [s_27____6492506____8281582] registered an inhibition at 10 µM on hERG potassium channel [1] of 69%. At hERG potassium channel [2] (Synthesis=Enamine), this compound returned an IC50 of 3250 nM. At hERG potassium channel [3] (Synthesis=Enamine), this compound registered an inhibition constant (Ki) of 2300 nM.
On to `CN(C)CCN(Cc1ccccc1)c1nc2cccc(F)c2s1` [s_27____7100858____10689034], for which the inhibition at 10 µM on hERG potassium channel [1] was determined as 83%. This compound also returned an IC50 against hERG potassium channel [2] (Synthesis=Enamine) of 2240 nM.
Take `CN(C)CCN(Cc1cccc(Cl)c1)c1cncc(Cl)n1` [s_27____7100894____215633]: testing at 10 µM at hERG potassium channel [1] gave an inhibition of 78.1%. Also, it took 1660 nM to reach half-maximal inhibition against hERG potassium channel [2] (Synthesis=Enamine) (IC50). This compound also returned an inhibition constant (Ki) on hERG potassium channel [3] (Synthesis=Enamine) of 1180 nM.
The like results for `CN(C)CCN(Cc1cccc(Cl)c1)c1ncncc1Cl` [s_27____7100894____9139880] were, in that order, 91.6%, 717 nM and 507 nM.
As for `CN(C)CCCn1nc(-c2ccccc2)c2ccccc2c1=O` [s_49____14518112____88928], the IC50 against hERG potassium channel [2] (Synthesis=Enamine) stood at 3710 nM. Besides, at hERG potassium channel [3] (Synthesis=Enamine), the Ki amounted to 2620 nM.
On to `CN(C)CCCn1nc(-c2ccc(Cl)cc2)c2ccccc2c1=O` [s_49____14518112____88929], for which, on hERG potassium channel [2] (Synthesis=Enamine), it took 909 nM to reach half-maximal inhibition (IC50).
As for `CN(C)CCCn1nc(-c2cccs2)c2ccccc2c1=O` [s_49____14518112____101877], on hERG potassium channel [1], at 10 µM the inhibition was 81.7%. In addition, the IC50 against hERG potassium channel [2] (Synthesis=Enamine) was 1340 nM.
`CN(C)CCCn1nc(-c2ccc(F)cc2)c2ccccc2c1=O` [s_49____14518112____1114614] registered an inhibition at 10 µM at hERG potassium channel [1] of 80.8%. Further, the IC50 against hERG potassium channel [2] (Synthesis=Enamine) turned out to be 2100 nM.

The values above are taken from doi:10.1101/2023.02.14.528391v1 (biorxiv, 2023).
